Columns and labels:
clinical = details: human, urine
ob/ob mice [1] = experiment: Oral glucose tolerance test in ob/ob mice; format: in vivo, mouse; details: 3 mg/kg daily, OGTT 2 g/kg on day 10
Description: (§1) Female C57BI/6J-ob/ob mice (Charles River, Sulzfeld) in the age of 8-9 weeks were used. 6 excisional wounds (including the panniculus carnosus) were placed on the back of each animal under ketamin anaesthesia. The animals were treated daily with 3 mg/kg of BI 1356 or methycellulose (1-2%). On day 10 an oral glucose tolerance test (2 g/kg) was performed (0, 30, 60, 90, 120 and 180 min) at the tail tip. Animals were killed under isofluran anaesthesia by cervical dislocation and wounds were excised for histological analysis. Serum was further taken for the detection of DPP-4 activity. Histology was performed in 6-8 μm paraffin embedded and paraformaldehyd fixed cuttings with eosin-hematoxylin staining. Moreover, polymorphonuclear neutrophils (PMN) were identified by immunohistological staining of Ly6G as a robust readout for wound inflammation. (Ref. S. Frank, Methods in Molecular Medicine 2003, Kämpfer, Diabetes 2006)

[2] = 2 h postprandial blood glucose excursions in patients with type 2 diabetes; format: in vivo, human; details: already on Day 1, doses ≧2.5 mg
Description: […]. […] […]. […] […].

[3] = Pharmacokinetics of BI 1356 in patients with type 2 diabetes, multiple oral doses once daily for 12 days; details: for RA, AUC (accumulation ratio), gMean (gCV) / RA, Cmax (accumulation ratio), gMean (gCV) / feτ, ss, gMean (gCV): steady state (Day 12); for fe0-24, gMean (gCV): type 2 diabetes patients
ob/ob mice [4] = experiment: Wound healing of excisional wounds in ob/ob mice (histology, Ly6G staining); format: in vivo, mouse; details: 3 mg/kg daily
Description: The ob/ob mice have been used and are accepted as experimental model for diabetes-impaired wound healing. These animals suffer from severe diabetes and obesity syndromes which show similar characteristics like in the human situation (e.g. obesity, insulin resistance). Insulin and diet reduce hyperglycemia in obese mice just they as they do in obese and diabetic subjects, but neither improves healing in these animals as has been shown recently.
as §1

[5] = Safety and tolerability in people with type 2 diabetes

## CC#CCn1c(N2CCC[C@@H](N)C2)nc2c1c(=O)n(Cc1nc(C)c3ccccc3n1)c(=O)n2C [BI 1356, 1-[(4-methyl-quinazolin-2-yl)methyl]-3-methyl-7-(2-butyn-1-yl)-8-(3-(R)-amino-piperidin-1-yl)-xanthine]
clinical; oral, 5 mg
  CL renal: ~70 mL/min
clinical; po
  CL renal: 14 to 70 mL/min
ob/ob mice [1]
  reduction of glucose excursion following oral glucose tolerance assay (absolute AUC): 25%
[2]
  decrease in 2 h postprandial blood glucose excursions: ≥ 80%
[3]; 1 mg oral once daily
  RA, AUC (accumulation ratio), gMean (gCV): 2.03 (30.7)
  RA, Cmax (accumulation ratio), gMean (gCV): 1.44 (25.6)
  feτ, ss, gMean (gCV): 3.34 (38.3) %
[3]; 2.5 mg oral once daily
  RA, AUC (accumulation ratio), gMean (gCV): 1.37 (8.2)
  RA, Cmax (accumulation ratio), gMean (gCV): 1.25 (10.6)
  feτ, ss, gMean (gCV): 3.06 (45.1) %
  fe0-24, gMean (gCV): 0.139 (51.2) %
[3]; 5 mg oral once daily
  RA, AUC (accumulation ratio), gMean (gCV): 1.33 (15.0)
  RA, Cmax (accumulation ratio), gMean (gCV): 1.33 (30.0)
  feτ, ss, gMean (gCV): 6.27 (42.2) %
  fe0-24, gMean (gCV): 0.453 (125)^ %
[3]; 10 mg oral once daily
  RA, AUC (accumulation ratio), gMean (gCV): 1.18 (23.4)
  RA, Cmax (accumulation ratio), gMean (gCV): 1.40 (47.7)
  feτ, ss, gMean (gCV): 3.22 (34.2) %
  fe0-24, gMean (gCV): 0.919 (115)^ %
[3]; doses above 1 mg, once daily oral
  mean accumulation ratio RA,AUC: ≤ 1.4
[3]; therapeutic oral dose levels
  excreted via the kidney: < 7 % of the administered oral dose
  route of excretion: primarily excreted unchanged via the bile
ob/ob mice [4]
  PMN accumulation in wounds (Ly6G immunohistology): overall reduction of PMN accumulation
  wound morphology and wound re-epithelialization (histology): profound improvement of wound morphology and wound re-epithelialization
ob/ob mice [4]; treated for 12 day, control 2.02±1.07 mm
  distance between wound margin epithelia (wound size): 0.74±0.90 mm
[5]
  safety and tolerability: placebo-like safety and tolerability
